Assay results from the NIST ThermoML archive (doi:10.1021/acs.jced.7b01031).
± gives the expanded uncertainty stated by the source.

Conditions: Pulse-echo method

Cl [hydrogen chloride]
Liquid
Conditions	speed of sound [m/s]
218.3 K	940 ± 3
224.3 K	910 ± 3
229.2 K	887 ± 3
233.1 K	865 ± 3
243 K	814 ± 3
248 K	790 ± 4
252.9 K	762 ± 4
258 K	734 ± 4
263 K	705 ± 4
268 K	676 ± 5
273 K	646 ± 5

Fluid (supercritical or subcritical phases)
Conditions	speed of sound [m/s]
267 K, 7500 kPa	735 ± 6
269.9 K, 9700 kPa	740 ± 6
274.8 K, 13900 kPa	751 ± 5
279.8 K, 5500 kPa	634 ± 7
279.8 K, 18000 kPa	761 ± 5
284.8 K, 8500 kPa	640 ± 7
284.8 K, 22200 kPa	773 ± 4
289.7 K, 11800 kPa	652 ± 7
289.8 K, 26500 kPa	783 ± 4
292.9 K, 6900 kPa	564 ± 9
294.8 K, 15600 kPa	666 ± 6
294.8 K, 30800 kPa	794 ± 4
295 K, 8000 kPa	567 ± 9
299.8 K, 19200 kPa	678 ± 6
300 K, 11100 kPa	582 ± 9
300 K, 35100 kPa	805 ± 4
303.1 K, 37700 kPa	810 ± 4
305 K, 14200 kPa	595 ± 8
305 K, 22900 kPa	690 ± 6
305 K, 39300 kPa	814 ± 4
310 K, 17300 kPa	608 ± 7
310 K, 26300 kPa	700 ± 5
315 K, 20400 kPa	621 ± 7
315 K, 30000 kPa	712 ± 5
320 K, 10800 kPa	425 ± 15
320 K, 23500 kPa	632 ± 6
320 K, 33600 kPa	722 ± 4
325 K, 12900 kPa	441 ± 9
325 K, 26600 kPa	643 ± 6
325 K, 37200 kPa	732 ± 4
328 K, 39300 kPa	738 ± 4
330 K, 15100 kPa	456 ± 9
330 K, 29800 kPa	654 ± 5
335 K, 17200 kPa	469 ± 9
335 K, 32900 kPa	665 ± 5
340 K, 19300 kPa	482 ± 10
340 K, 36000 kPa	675 ± 5
345 K, 21500 kPa	494 ± 8
345 K, 39200 kPa	685 ± 5
350 K, 23700 kPa	506 ± 7
355 K, 25900 kPa	517 ± 6
359.9 K, 21500 kPa	433 ± 9
360 K, 28000 kPa	527 ± 8
365 K, 30200 kPa	537 ± 7
369.9 K, 24900 kPa	454 ± 8
370 K, 32400 kPa	547 ± 5
374.9 K, 34600 kPa	556 ± 5
379.9 K, 28400 kPa	473 ± 6
379.9 K, 36800 kPa	565 ± 6
385.9 K, 39400 kPa	575 ± 7
389.9 K, 31800 kPa	491 ± 6
394.9 K, 22700 kPa	371 ± 6
399.9 K, 12100 kPa	324 ± 2
399.9 K, 35300 kPa	508 ± 6
404.9 K, 24800 kPa	386 ± 5
409.9 K, 21600 kPa	356 ± 5
411.9 K, 39500 kPa	526 ± 6
414.9 K, 26900 kPa	400 ± 6
419.9 K, 13200 kPa	339 ± 2
419.9 K, 23100 kPa	368 ± 3
424.9 K, 29000 kPa	414 ± 6
434.9 K, 31000 kPa	426 ± 5
439.9 K, 14300 kPa	355 ± 2
439.9 K, 26100 kPa	390 ± 3
444.9 K, 33100 kPa	438 ± 5
459.9 K, 29100 kPa	411 ± 3
460 K, 15500 kPa	369 ± 2
460 K, 36100 kPa	456 ± 4
474.9 K, 39200 kPa	472 ± 4
479.9 K, 16500 kPa	383 ± 2
479.9 K, 32000 kPa	430 ± 3
